Data on ten compounds can be found in US10717716B2, “1,3,4-oxadiazole derivative compounds as histone deacetylase 6 inhibitor, and the pharmaceutical composition comprising the same” (Chong Kun Dang Pharmaceutical Corp., priority 2015, dated 2020).

This experiment deals with T1, human recombinant HDAC6 (Homo sapiens, UniProt Q9UBN7).
T1 construct: purchased Calbiochem 382180
T1 sequence (Q9UBN7 1-1215): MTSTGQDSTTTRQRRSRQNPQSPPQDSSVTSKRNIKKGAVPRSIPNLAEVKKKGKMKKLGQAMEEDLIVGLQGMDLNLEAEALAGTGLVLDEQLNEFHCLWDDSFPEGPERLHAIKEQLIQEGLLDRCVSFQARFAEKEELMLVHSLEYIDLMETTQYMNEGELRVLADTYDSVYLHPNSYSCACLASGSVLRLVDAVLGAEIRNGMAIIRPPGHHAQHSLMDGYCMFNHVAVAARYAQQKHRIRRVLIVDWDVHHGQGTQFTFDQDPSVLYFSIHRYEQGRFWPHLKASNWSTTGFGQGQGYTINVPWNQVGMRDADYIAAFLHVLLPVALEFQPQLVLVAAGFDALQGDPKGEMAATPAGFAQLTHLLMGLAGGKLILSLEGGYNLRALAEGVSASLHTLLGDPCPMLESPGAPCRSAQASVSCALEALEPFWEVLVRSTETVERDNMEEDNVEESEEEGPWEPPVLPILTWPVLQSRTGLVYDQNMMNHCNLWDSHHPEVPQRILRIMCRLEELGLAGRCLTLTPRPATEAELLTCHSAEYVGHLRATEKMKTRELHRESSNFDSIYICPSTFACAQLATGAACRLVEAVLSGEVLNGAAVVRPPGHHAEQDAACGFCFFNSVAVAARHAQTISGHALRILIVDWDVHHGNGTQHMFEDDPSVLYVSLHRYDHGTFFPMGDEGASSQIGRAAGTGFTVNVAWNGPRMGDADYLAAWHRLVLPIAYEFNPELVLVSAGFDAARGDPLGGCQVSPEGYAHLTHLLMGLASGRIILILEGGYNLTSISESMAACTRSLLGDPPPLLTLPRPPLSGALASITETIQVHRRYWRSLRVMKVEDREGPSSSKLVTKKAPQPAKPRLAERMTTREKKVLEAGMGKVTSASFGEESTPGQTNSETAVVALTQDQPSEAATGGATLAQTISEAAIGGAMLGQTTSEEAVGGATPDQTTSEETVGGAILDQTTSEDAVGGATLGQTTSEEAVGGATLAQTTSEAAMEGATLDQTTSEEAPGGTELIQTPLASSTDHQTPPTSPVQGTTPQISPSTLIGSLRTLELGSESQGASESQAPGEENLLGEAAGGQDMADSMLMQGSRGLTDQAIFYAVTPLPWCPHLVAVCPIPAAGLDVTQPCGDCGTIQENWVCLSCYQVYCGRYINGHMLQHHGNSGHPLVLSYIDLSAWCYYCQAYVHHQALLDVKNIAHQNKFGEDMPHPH
Put plainly: HDAC6 enzyme activity inhibition assay (HDAC Fluorimetric Drug Discovery Kit). In kind it is biochemical. The settings on record: for HDAC6 selectivity (fold): HDAC6 over HDAC1; for IC50: human recombinant HDAC6, same protocol as HDAC1, read-out: HDAC6. The method, boiled down: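 Human recombinant HDAC1 or HDAC6 (0.3 μg) reacted with 10 μM Fluor de Lys-SIRT1 substrate and 5-fold compound dilutions for 60 min at 30 °C. Developer II added for 30 min, fluorescence read at Ex 360/Em 460; IC50 calculated from the readings.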

For `CN1CCN(C(=O)N(Cc2ccc(-c3nnc(C(F)(F)F)o3)cn2)c2ccccc2F)CC1` [Compound 21634, N-(2-fluorophenyl)-4-methyl-N-((5-(5-(trifluoromethyl)-1,3,4-oxadiazol-2-yl)pyridin-2-yl)methyl)piperazine-1-carboxamide], the “HDAC6 selectivity (fold)” value worked out at 83 fold and the IC50 stood at 120 nM.

Consider `CN(C)[C@H]1CCN(C(=O)N(Cc2ccc(-c3nnc(C(F)F)o3)cc2F)c2cccc(Cl)c2F)C1` [Compound 21643, (S)—N-(3-chloro-2-fluorophenyl)-N-(4-(5-(difluoromethyl)-1,3,4-oxadiazol-2-yl)-2-fluorobenzyl)-3-(dimethylamino)pyrrolidine-1-carboxamide], for which the “HDAC6 selectivity (fold)” value amounted to 352 fold and the IC50 came to 28 nM.

In the case of `CN(C)[C@H]1CCN(C(=O)N(Cc2ccc(-c3nnc(C(F)(F)F)o3)cc2F)c2cccc(Cl)c2F)C1` [Compound 21644, (S)—N-(3-chloro-2-fluorophenyl)-3-(dimethylamino)-N-(2-fluoro-4-(5-(trifluoromethyl)-1,3,4-oxadiazol-2-yl)benzyl)pyrrolidine-1-carboxamide], the “HDAC6 selectivity (fold)” value is recorded as 74 fold and the IC50 is 135 nM.

On to `CN(C)[C@@H]1CCN(C(=O)N(Cc2ccc(-c3nnc(C(F)(F)F)o3)cc2F)c2cccc(Cl)c2F)C1` [Compound 21645, (R)—N-(3-chloro-2-fluorophenyl)-3-(dimethylamino)-N-(2-fluoro-4-(5-(trifluoromethyl)-1,3,4-oxadiazol-2-yl)benzyl)pyrrolidine-1-carboxamide], for which the “HDAC6 selectivity (fold)” value is given as 46 fold and the IC50 came out at 216 nM.

On to `CCN1CCN(C(=O)N(Cc2ccc(-c3nnc(C(F)F)o3)cc2F)c2cccc(Cl)c2F)CC1` [Compound 21646, N-(3-chloro-2-fluorophenyl)-N-(4-(5-(difluoromethyl)-1,3,4-oxadiazol-2-yl)-2-fluorobenzyl)-4-ethylpiperazine-1-carboxamide], for which the “HDAC6 selectivity (fold)” value is on record as 317 fold and the IC50 is 32 nM.

As for `O=C(N1CCS(=O)(=O)CC1)N(Cc1ccc(-c2nnc(C(F)F)o2)cc1F)c1ccc(F)cn1` [Compound 21653, N-(4-(5-(difluoromethyl)-1,3,4-oxadiazol-2-yl)-2-fluorobenzyl)-N-(5-fluoropyridin-2-yl)thiomorpholine-4-carboxamide 1,1-dioxide], the “HDAC6 selectivity (fold)” value is on record as 246 fold and the IC50 was 41 nM.

As to `CCN1CCN(C(=O)N(Cc2ccc(-c3nnc(C(F)F)o3)cc2F)c2cccc(F)c2F)CC1` [Compound 21655, N-(4-(5-(difluoromethyl)-1,3,4-oxadiazol-2-yl)-2-fluorobenzyl)-N-(2,3-difluorophenyl)-4-ethylpiperazine-1-carboxamide], the “HDAC6 selectivity (fold)” value amounted to 690 fold and the IC50 was found to be 15 nM.

Regarding `CCN1CCN(C(=O)N(Cc2ccc(-c3nnc(C(F)F)o3)cc2F)c2ccc(C)c(Cl)c2)CC1` [Compound 21657, N-(3-chloro-4-methylphenyl)-N-(4-(5-(difluoromethyl)-1,3,4-oxadiazol-2-yl)-2-fluorobenzyl)-4-ethylpiperazine-1-carboxamide], the “HDAC6 selectivity (fold)” value was 226 fold and the IC50 amounted to 44 nM.

With `CN1CCN(C(=O)N(Cc2ccc(-c3nnc(C(F)F)o3)cc2F)c2cccc3cnn(C)c23)CC1` [Compound 21707, N-(4-(5-(Difluoromethyl)-1,3,4-oxadiazol-2-yl)-2-fluorobenzyl)-4-methyl-N-(1-methyl-1H-indazol-7-yl)piperazine-1-carboxamide], the “HDAC6 selectivity (fold)” value was 199 fold and the IC50 stood at 50 nM.

For `Cn1ncc2cccc(N(Cc3ccc(-c4nnc(C(F)F)o4)cc3F)C(=O)N3CCS(=O)(=O)CC3)c21` [Compound 21708, N-(4-(5-(Difluoromethyl)-1,3,4-oxadiazol-2-yl)-2-fluorobenzyl)-N-(1-methyl-1H-indazol-7-yl)thiomorpholine-4-carboxamide 1,1-dioxide], the “HDAC6 selectivity (fold)” value worked out at 167 fold and the IC50 came out at 60 nM.
